Data published in ChEMBL document CHEMBL1201862, “PubChem BioAssay data set” (2004).
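Interpolation was linear, between the two tested concentrations surrounding the appropriate level; five concentrations were tested over 48 hours in 96-well plates. GI50 = concentration required for 50% inhibition of growth.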 The source made the active and inactive calls. Cut-off read from the data, not from the text of the source: active = GI50 up to about 1.1 µM and inactive = higher.

Columns and labels:
Test in all cases: growth of human tumour cells (NCI), 48 h
T47D = tested on: T47D
MDA-MB-435 = tested on: MDA-MB-435
BT-549 = tested on: BT-549
SR = tested on: SR
OVCAR-3 = tested on: OVCAR-3
DU-145 = tested on: DU-145
Hs-578T = tested on: Hs-578T
ACHN = tested on: ACHN
MDA-MB-231 = tested on: MDA-MB-231
KM-20L2 = tested on: KM-20L2
M19-MEL = tested on: M19-MEL
COLO 205 = tested on: COLO 205
HOP-18 = tested on: HOP-18
IGROV-1 = tested on: IGROV-1
OVCAR-8 = tested on: OVCAR-8
DLD-1 = tested on: DLD-1
XF498 = tested on: XF498
SF-295 = tested on: SF-295
OVCAR-4 = tested on: OVCAR-4
LXFL 529 = tested on: LXFL 529

Measured: GI50

COC(=O)C1=C(O)C(C(=O)OC)[C@@]2(O)[C@@H](C(=O)OC)CC[C@@H]1[C@@H]2C(=O)OC (stereo partly drawn)
inactive: T47D 54.2 µM | MDA-MB-435 18.2 µM | BT-549 25.5 µM | SR 14.9 µM | OVCAR-3 21.3 µM | DU-145 44.7 µM | Hs-578T 11.1 µM | ACHN 39.2 µM | MDA-MB-231 25.1 µM

Cc1[nH]c(=O)[nH]c(=O)c1/C=C/C(=O)NC(CO)C[S+]([O-])Cc1ccccc1 (stereo not drawn)
inactive: KM-20L2 > 300 µM | M19-MEL > 300 µM | COLO 205 > 300 µM | HOP-18 > 289 µM | IGROV-1 > 300 µM | OVCAR-8 > 300 µM | OVCAR-3 > 300 µM | DLD-1 > 300 µM | XF498 > 300 µM | SF-295 > 300 µM

O=C1C(Cl)N(c2ccc(Cl)cc2Cl)C1c1c[nH]c2ccccc12 (stereo not drawn)
inactive: OVCAR-4 > 100 µM | KM-20L2 > 100 µM | M19-MEL > 100 µM | LXFL 529 > 100 µM | COLO 205 > 100 µM | IGROV-1 > 100 µM | OVCAR-8 > 100 µM | SR 59.8 µM | OVCAR-3 78.3 µM | XF498 > 100 µM | SF-295 > 100 µM

O=c1c(Cc2ccc(Cc3c(O)oc4ccccc4c3=O)cc2)c(O)oc2ccccc12
inactive: OVCAR-4 > 100 µM | T47D > 100 µM | COLO 205 > 100 µM | MDA-MB-435 > 100 µM | IGROV-1 > 100 µM | OVCAR-8 > 100 µM | BT-549 > 100 µM | SR > 100 µM | OVCAR-3 > 100 µM | DU-145 > 100 µM | Hs-578T > 100 µM | SF-295 > 100 µM | MDA-MB-231 > 100 µM

CCOC(=O)C(NC(C)=O)(Nc1ccc(F)cc1)C(F)(F)F (stereo not drawn)
inactive: OVCAR-4 88.1 µM | T47D 23.2 µM | COLO 205 > 100 µM | MDA-MB-435 3.95 µM | IGROV-1 90.8 µM | OVCAR-8 > 100 µM | BT-549 > 100 µM | SR 24.8 µM | OVCAR-3 > 100 µM | DU-145 > 100 µM | Hs-578T > 100 µM | ACHN 2.62 µM | SF-295 16.6 µM | MDA-MB-231 > 100 µM

COc1cc2c(cc1OC)C1Cc3sccc3CN1CC2 (stereo not drawn)
inactive: OVCAR-4 > 100 µM | KM-20L2 > 100 µM | M19-MEL > 100 µM | LXFL 529 > 100 µM | HOP-18 > 100 µM | IGROV-1 > 100 µM | OVCAR-8 > 100 µM | SR 88.9 µM | OVCAR-3 > 100 µM | DLD-1 > 100 µM | XF498 > 100 µM | ACHN > 100 µM | SF-295 > 100 µM

C=CCn1c2ccccc2c2c(C)c3cnccc3c(C)c21
inactive: OVCAR-4 8.97 µM | KM-20L2 6.75 µM | M19-MEL 9.23 µM | COLO 205 6.4 µM | HOP-18 > 125 µM | IGROV-1 8.75 µM | OVCAR-8 5.53 µM | OVCAR-3 11.1 µM | DLD-1 7.08 µM | XF498 12.4 µM | SF-295 9.86 µM

O=C(O)CN(CC(=O)O)C1CCCCC1N(CC(=O)O)CC(=O)NCCN=C=S (stereo not drawn)
inactive: T47D > 100 µM | MDA-MB-435 > 100 µM | IGROV-1 > 100 µM | OVCAR-8 > 100 µM | BT-549 > 100 µM | OVCAR-3 > 100 µM | DU-145 > 100 µM | Hs-578T > 100 µM | ACHN > 100 µM | SF-295 > 100 µM | MDA-MB-231 > 100 µM

CC(C)(C)C1(c2ccc(C3(c4ccccc4)Oc4ccccc4S3)[nH]2)Oc2ccccc2S1 (stereo not drawn)
inactive: KM-20L2 > 100 µM | M19-MEL > 100 µM | LXFL 529 > 100 µM | HOP-18 > 100 µM | IGROV-1 > 100 µM | OVCAR-8 > 100 µM | OVCAR-3 > 100 µM | DLD-1 > 100 µM | XF498 32.5 µM | ACHN > 100 µM | SF-295 > 100 µM
